Earlier results as cited in patent US20240156825A1, “USE OF SELECTIVE VEGFR2 AND FGFR1 INHIBITORS” (Fountain Therapeutics Inc., priority 2022, published 2024).
Where two headings read alike, the source gives them in different places.

What was measured:
[1] = tested on: any gene target; conditions: next lowest IC50 value to any gene target, read-out: Min IC50_μM, cited from earlier work
[2] = biological target: VEGFR2 (Homo sapiens, UniProt P35968); conditions: reported IC50 to VEGFR2, read-out: VEGFR2 IC50_μM, cited from earlier work
Sequence of VEGFR2 (P35968 20-1356, species assumed): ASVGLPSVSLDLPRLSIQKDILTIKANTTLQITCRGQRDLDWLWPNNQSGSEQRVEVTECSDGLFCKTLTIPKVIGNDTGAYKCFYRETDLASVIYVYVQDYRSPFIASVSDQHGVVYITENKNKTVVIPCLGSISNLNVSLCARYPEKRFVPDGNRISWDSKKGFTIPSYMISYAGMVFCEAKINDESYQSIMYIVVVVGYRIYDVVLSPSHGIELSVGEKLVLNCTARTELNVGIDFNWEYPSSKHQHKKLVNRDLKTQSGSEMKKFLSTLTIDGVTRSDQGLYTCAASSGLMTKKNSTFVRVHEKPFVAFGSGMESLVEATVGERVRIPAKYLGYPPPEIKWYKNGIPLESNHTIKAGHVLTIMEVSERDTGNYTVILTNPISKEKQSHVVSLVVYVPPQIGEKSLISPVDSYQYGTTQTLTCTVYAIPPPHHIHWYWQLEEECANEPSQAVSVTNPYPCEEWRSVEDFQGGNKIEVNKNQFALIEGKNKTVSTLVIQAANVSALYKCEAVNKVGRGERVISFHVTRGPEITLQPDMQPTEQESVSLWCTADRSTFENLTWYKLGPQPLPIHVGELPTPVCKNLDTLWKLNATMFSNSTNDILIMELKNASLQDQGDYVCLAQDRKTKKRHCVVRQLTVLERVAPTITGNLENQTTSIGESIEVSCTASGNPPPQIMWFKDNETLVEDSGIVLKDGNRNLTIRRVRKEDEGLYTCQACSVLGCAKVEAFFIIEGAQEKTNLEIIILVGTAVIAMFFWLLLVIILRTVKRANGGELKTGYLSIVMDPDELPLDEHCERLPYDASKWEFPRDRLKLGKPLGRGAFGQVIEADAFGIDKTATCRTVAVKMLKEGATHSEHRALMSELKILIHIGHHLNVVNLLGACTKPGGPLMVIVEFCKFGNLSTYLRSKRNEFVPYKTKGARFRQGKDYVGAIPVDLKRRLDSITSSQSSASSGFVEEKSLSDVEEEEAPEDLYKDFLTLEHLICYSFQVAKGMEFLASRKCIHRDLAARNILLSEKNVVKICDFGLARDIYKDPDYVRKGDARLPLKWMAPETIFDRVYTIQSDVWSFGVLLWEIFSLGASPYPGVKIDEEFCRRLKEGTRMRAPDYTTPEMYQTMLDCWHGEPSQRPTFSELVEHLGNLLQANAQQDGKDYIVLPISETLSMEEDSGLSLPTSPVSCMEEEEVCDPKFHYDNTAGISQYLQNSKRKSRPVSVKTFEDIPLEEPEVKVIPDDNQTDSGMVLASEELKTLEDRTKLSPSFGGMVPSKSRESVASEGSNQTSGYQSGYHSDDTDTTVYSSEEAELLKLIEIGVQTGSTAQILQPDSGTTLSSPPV

[3] = Table 3, selective inhibitors of VEGFR2

Structure (SMILES)	IC50 ([1]; Table 3) [nM]	IC50 [2, 3] [nM]	IC50 [1] [nM]	IC50 [2] [nM]
CCN1CCCC(c2nc(COc3cc4ncnc(Nc5ccc(Cl)c(Cl)c5)c4cc3OC)no2)C1 (stereo not drawn) [compound 58013772]	50	50		
COc1cc(C2=C(c3c[nH]c4ccc(I)cc34)C(=O)NC2=O)cc(OC)c1OC [compound 46231220]			29.5	24.9
COc1cc2c(Nc3ccc(Cl)c(Cl)c3F)ncnc2cc1OC[C@@H]1CN(C)CC(=O)N1C [compound 57802574]	50	50		
COc1cc2c(Nc3ccc(Cl)c(Cl)c3)ncnc2cc1O[C@@H]1C[C@H]2OC[C@H](OC)[C@H]2O1 [compound 134140126]	50	50		
COc1cc(C2=C(c3cn(COc4ccccc4)c4ccccc34)CNC2=O)cc(OC)c1OC [compound 24894997]			1700	1500
COc1cc2c(Nc3ccc(Cl)c(Cl)c3)ncnc2cc1OCC1CN(C(=O)c2c(C)noc2C)CCO1 (stereo not drawn) [compound 57802871]	50	50		
COc1cc2c(Nc3ccc(Br)c(Cl)c3F)ncnc2cc1OC[C@@H]1CN2CCC[C@H]2C(=O)N1 [compound 57802807]			50	50
COc1cc2c(Nc3ccc(Br)c(Cl)c3)ncnc2cc1O[C@@H]1CCOC1 [compound 58013780]	50	50		
COc1cc2c(Nc3ccc(F)c(Cl)c3F)ncnc2cc1OC[C@@H]1CN2CCOC[C@H]2CO1 [compound 66838567]	50	50		
COc1cc2ncnc(Nc3ccc(Cl)cc3)c2cc1OCCCC(=O)NO [compound 127027096]			698	182
CCN(CC)[C@H]1CO[C@H]2[C@@H]1OC[C@@H]2Oc1cc2ncnc(Nc3ccc(Br)c(Cl)c3)c2cc1OC [compound 67163520]	50	50		
COc1cc(C2=C(c3cn(COC(C)(C)C)c4ccccc34)CNC2=O)cc(OC)c1OC [compound 24894992]	4400	4400		
Nc1ccc2c(c1)C(c1ccccc1Cl)=Nc1cn[nH]c1N2 [compound 136002661]			88	34
CC1(C)CC(NC(=O)c2cccc(-c3cc4nccc(Nc5cccc(O)c5)n4n3)c2)CC(C)(C)N1[O] [compound 46179972]			5	3.3
COc1cc2c(Nc3cc(Cl)c(Cl)c(Cl)c3)ncnc2cc1OCC1CN(C)CCO1 (stereo not drawn) [compound 57802593]	50	50		
COc1cc2c(Nc3ccc(Cl)c(Cl)c3)ncnc2cc1OCCN1C(=O)c2ccccc2C1=O [compound 57802754]			50	50
O=C(Nc1cccc(-c2cncc3ccccc23)c1)c1ccccc1NCc1ccncc1 [compound 44368815]			52	1.16
COc1cc2c(Nc3ccc(Cl)c(Cl)c3)ncnc2cc1OCC1CN(C(=O)C2CCCC2)CCO1 (stereo not drawn) [compound 57802868]	50	50		
CC(C)Oc1cc2c(Nc3ccc(Cl)c(Cl)c3)ncnc2cc1OCC1CN(C)CCO1 (stereo not drawn) [compound 57802797]			50	50
COc1cc2ncnc(Nc3ccccc3Cl)c2cc1OCCCC(=O)NO [compound 127027019]			1260	857

Structure (SMILES)	IC50 ([1]; Table 3) [nM]	IC50 [2, 3] [nM]	IC50 [1] [nM]	IC50 [2] [nM]
COc1cc2c(Nc3ccc(Cl)cc3F)ncnc2cc1OCCCN1CCOCC1 [compound 5329020]			50	9
C[C@@H](Nc1ncnc2[nH]c(-c3ccc(NC(=O)CCCC(=O)NO)cc3)cc12)c1ccccc1 [compound 24900574]			100	100
O=C(Nc1cccc(-c2cn3ccnc3c(NCc3ccncc3)n2)c1)Nc1cccc(C(F)(F)F)c1 [compound 11755812]			35	33
CN(c1ccc2cn(C)nc2c1)c1ccnc(Nc2cccc(S(N)(=O)=O)c2)n1 [compound 24949548]			2900	7.6
CCN1CCC(c2nc(COc3cc4ncnc(Nc5ccc(Cl)c(Cl)c5)c4cc3OC)no2)CC1 [compound 58013796]	50	50		
COc1cc2c(Nc3ccc(Cl)c(Cl)c3)ncnc2cc1OCCC1CN(C)C(C)(C)CO1 (stereo not drawn) [compound 57802889]	50	50		
CN1CCC(Nc2ccc3c(c2)/C(=C/c2cc4c([nH]2)CCN(C(=O)N2CCOCC2)C4)C(=O)N3)CC1 [compound 71714235]	3	3		
CC(C)Oc1cc2c(Nc3ccc(Cl)c(Cl)c3)ncnc2cc1OCC1CNCCO1 (stereo not drawn) [compound 57802576]	50	50		
CCCN1CCCOC(COc2cc3ncnc(Nc4ccc(Cl)c(Cl)c4)c3cc2OC)C1 (stereo not drawn) [compound 57802675]			50	50
COc1cc2c(Nc3ccc(C)c(Cl)c3Cl)ncnc2cc1OCC1CN(C)CCO1 (stereo not drawn) [compound 57802779]			50	50
COc1cc2c(Nc3ccc(Br)c(Cl)c3Cl)ncnc2cc1OC[C@@H]1CN2CCOC[C@H]2CO1 [compound 66838558]	50	50		
COc1cc2c(Nc3ccc(Cl)c(Cl)c3)ncnc2cc1OCc1csc(C2CCNCC2)n1 [compound 53630972]	50	50		
Cc1ccc(NC(=O)c2cc(C3CC3)[nH]n2)cc1Nc1nc2ccccc2n1-c1cc(N)ncn1 [compound 15949619]			50	48
COc1cc2c(Nc3ccc(Cl)c(Cl)c3)ncnc2cc1OCc1csc(N2CCN(C)CC2)n1 [compound 57802910]	50	50		
COc1cc2c(Nc3ccc(Cl)c(Cl)c3)ncnc2cc1OC1C[C@@H]2CN(C)C[C@@H]2C1 (stereo partly drawn) [compound 10253661]	50	50		
COc1cc2c(Nc3cc(Cl)c(Br)cc3F)ncnc2cc1OC[C@H]1CN2CCOC[C@H]2CO1 [compound 10030541]	50	50		
O=C1N/C=C/c2ccc(c(Br)c2)Oc2cc(cc(Br)c2O)CCNC(=O)/C(=N/O)Cc2ccc(c(Br)c2)Oc2cc(cc(Br)c2O)C/C1=N\O [compound 10396070]			1500	1300
COc1cc2c(Nc3ccc(Cl)c(Cl)c3)ncnc2cc1OC[C@@H]1O[C@@H](OC)[C@@H](O)[C@H](O)[C@H]1O [compound 57802800]			50	50
COc1cc2ncnc(Nc3ccc(Br)cc3)c2cc1OCCCCC(=O)NO [compound 127028028]			68	59
COc1cc2c(Nc3ccc(Cl)c(Cl)c3)ncnc2cc1OC[C@@H]1CN2CCC[C@@H]2CO1 [compound 57802582]	50	50		

Structure (SMILES)	IC50 ([1]; Table 3) [nM]	IC50 [2, 3] [nM]	IC50 [1] [nM]	IC50 [2] [nM]
CCN1CCCCC1c1nc(COc2cc3ncnc(Nc4ccc(Cl)c(Cl)c4)c3cc2OC)no1 (stereo not drawn) [compound 57802919]	50	50		
COc1cc2c(Nc3ccc(Br)c(Cl)c3F)ncnc2cc1OC[C@H]1CN2CCOC[C@H]2CO1 [compound 10370400]	50	50		
CCN(Cc1cc(Nc2nc(C)cn3c(-c4cn[nH]c4)cnc23)sn1)C(C)(C)CO [compound 53317913]	1	1		
COc1cc2nccc(Oc3ccc4c(C(=O)NCC(F)(F)F)cccc4c3)c2cc1OC [compound 24823250]			16	3.8
COc1cc2c(Nc3ccc(Br)c(C)c3)ncnc2cc1OCC1CN(C)CCO1 (stereo not drawn) [compound 57802842]	50	50		
COc1cc2c(Nc3ccc(F)c(Cl)c3F)ncnc2cc1OCC1CN(C)C(C)(C)CO1 (stereo not drawn) [compound 57802650]			50	50
Nc1c(-c2ccc(F)cc2)c(-c2ccncc2)nn1-c1c(Cl)cc(Cl)cc1Cl [compound 56924694]			31	29
OCCCNc1cncc(-c2cncc(Nc3cccc(Cl)c3)n2)c1 [compound 5330387]	5	5		
O=C(CCCCCN1CCN(Cc2ccc(-c3cc4c(NCc5ccccc5)ncnc4[nH]3)cc2)CC1)NO [compound 24900714]	100	100		
Cc1nc2cc(N(C)c3ccnc(Nc4cccc(S(N)(=O)=O)c4)n3)ccc2n1C [compound 10273854]			9000	17
CCN1CCOC(COc2cc3ncnc(Nc4ccc(Cl)c(Cl)c4)c3cc2OC)C1 (stereo not drawn) [compound 57802737]			50	50
COc1cc2c(Nc3ccc(Cl)c(Cl)c3)ncnc2cc1OCC1CN(C(=NC#N)N2CCCC2)CCO1 (stereo not drawn) [compound 57802904]	50	50		
COc1cc2c(Nc3ccc(Cl)c(Cl)c3F)ncnc2cc1OCC1CN(C)CCO1 (stereo not drawn) [compound 57802591]	50	50		
COc1cc2c(Nc3cc(Cl)c(Br)cc3F)ncnc2cc1OCC1COCCN1C (stereo not drawn) [compound 134154844]	50	50		
COc1cc2c(Nc3ccc(Br)cc3F)ncnc2cc1OC/C=C/CN1CCCC1 [compound 22478260]			30	8
CCN1CCCOC(COc2cc3ncnc(Nc4ccc(Cl)c(Cl)c4)c3cc2OC)C1 (stereo not drawn) [compound 57802623]	50	50		
COc1cc2c(Nc3ccc(Cl)c(Cl)c3)ncnc2cc1OC[C@@H]1CO[C@H]2[C@@H]1OC[C@@H]2OC [compound 66955051]	50	50		
Cc1[nH]nc2cc(N(C)c3ccnc(Nc4cccc(S(N)(=O)=O)c4)n3)ccc12 [compound 21956341]			700	0.6
CCS(=O)(=O)N1CCOC(COc2cc3ncnc(Nc4ccc(Cl)c(Cl)c4)c3cc2OC)C1 (stereo not drawn) [compound 57802817]	50	50		
CCOc1cc2c(Nc3ccc(Cl)c(Cl)c3)ncnc2cc1OCC1CNCCO1 (stereo not drawn) [compound 57802713]			50	50
